# Data reported in US5874086A, “Synthesis and use for the treatment of osteoporosis” (Syntex (U.S.A,), Inc., priority 1994, dated 1999).
# Where no end group is shown, it is not given here. [ ]: non-standard residue; d: D form. The star is where a group is joined. hSer(lactone) = O=C1OCC[C@@H]1N*
# B1: bPTH(1-84): bovine parathyroid hormone, single polypeptide chain of 84 amino acid residues (protein, UniProt P01268 32-115, looked up)
# Parathyroid hormone: AVSEIQFMHNLGKHLSSMERVEWLRKKLQDVHNFVALGASIAYRDGSSQRPRKKEDNVLVESHQKSLGEADKADVDVLIKAKPQ
# modifications: Parathyroid hormone
# notes: bovine parathyroid hormone, single polypeptide chain of 84 amino acid residues
# What was measured:
# ovariectomized rats = assay: Effect on bone mass (bone calcium) in ovariectomized rats; format: in vivo, Sprague-Dawley female rats
# Experimental: Bone Dis. 5:177 181 (1984).
# Adult Sprague-Dawley female rats were acclimatized, weight grouped (n=9, 10 or 12), and subjected to bilateral ovariectomy (OVX) or sham surgery. Dosing was initiated 17 days after surgery and continued for 20 days. Test compound was administered subcutaneously once a day in 2% rat serum/saline vehicle.
# After 20 days of dosing, the rats were sacrificed and the right femurs excised. The femurs were cut in half and the distal half femurs (DHF) were further separated into trabecular bone (TB) and cortical bone (CB) by drilling out the trabeculae. Calcium was extracted and measured by Calcette calcium analyzer and expressed as mean bone Ca in mg/DHF/100 g body weight.
# The two sample t-test was used to compare OVX and sham groups. One-way ANOVA was used to compare OVX groups, followed by Fisher's LSD multiple comparison to compare each treatment group to vehicle.
# [1] = test system: normal and osteoporotic adult female rats; conditions: daily subcutaneous doses; cited from earlier work
# healthy adult male rats = conditions: daily subcutaneous injections for 12 days; cited from earlier work
# [2] = test system: ovariectomized adult female rats; conditions: daily subcutaneous injections; cited from earlier work
# [3] = 80 μg/kg/day subcutaneously once a day, 20 days of dosing
Molecule,"Total Bone Calcium (% increase over OVX) (ovariectomized rats; 40 ug/kg/day, 10 d of dosing) [%]","Total Bone Calcium (% increase over OVX) (ovariectomized rats; 40 ug/kg/day, 5 d of dosing) [%]",Total Bone Calcium (% increase over OVX) (ovariectomized rats; [3]),Whole body calcium and ash weight of individual bones [1],further results
AVSEHQLLHDKGKSIQDLRRRELLEKLLEKLHTX [Compound 49],93,,,,
AVSEHQLLHDKGKSIQDLRRRELLEKLLEKLP-NH2 (AVSEHQLLHDKGKSIQDLRRRELLEKLLEKLP-NH2) [Compound 42],,60,,,
AVSEHQLLHDKGKSIQDLRRRELLEKLLEKLHTA-OH [Compound 2],,,66-114%,,Trabecular Bone Calcium (% increase over OVX) (ovariectomized rats; [3]): 87-102%
"AVSEHQLLHDKGKSIQDLRRRELLEKLLEKLHTX (AVSEHQLLHDKGKSIQDLRRRELLEKLLEKLHT[hSer(lactone)]) [Compound 4, X = hSerlac; homoserine lactone peptide]",79,55,88-114%,,"Total Bone Calcium (% increase over OVX) (ovariectomized rats; 40 ug/kg/day, 20 d of dosing): 79-105%"
"hPTH(1-34): N-terminal (1-34) fragment of human parathyroid hormone (SVSEIQLMHNLGKHLNSMERVEWLRKKLQDVHNF; Parathyroid hormone; UniProt P01270 32-65, looked up, fragment)",,,,increased,Trabecular and cortical bone calcium and dry weight (healthy adult male rats): increased; Loss of trabecular bone after ovariectomy [2]: completely reversed the loss of trabecular bone
B1,,,,increased,
